Measurements published in patent US9040523B2, “Antifungal 5,6-dihydro-4H-pyrrolo[1,2-α][1,4]-benzodiazepines and 6H-pyrrolo[1,2-α][1,4]benzodiazepines substituted with benzene derivatives” (JANSSEN PHARMACEUTICA NV, priority 2010, dated 2015).

Experiments:
Cytochrome P450 2C9 = Cytochrome P450 2C9 (Homo sapiens, UniProt P11712); assay: Human liver microsomal cytochrome P450 cocktail inhibition assay, Protocol C; conditions: 2C9 Tolbut pIC50, human liver microsomes 0.2 mg/ml; probe tolbutamide 100 microM
Cytochrome P450 2C9, sequence (P11712 whole entry): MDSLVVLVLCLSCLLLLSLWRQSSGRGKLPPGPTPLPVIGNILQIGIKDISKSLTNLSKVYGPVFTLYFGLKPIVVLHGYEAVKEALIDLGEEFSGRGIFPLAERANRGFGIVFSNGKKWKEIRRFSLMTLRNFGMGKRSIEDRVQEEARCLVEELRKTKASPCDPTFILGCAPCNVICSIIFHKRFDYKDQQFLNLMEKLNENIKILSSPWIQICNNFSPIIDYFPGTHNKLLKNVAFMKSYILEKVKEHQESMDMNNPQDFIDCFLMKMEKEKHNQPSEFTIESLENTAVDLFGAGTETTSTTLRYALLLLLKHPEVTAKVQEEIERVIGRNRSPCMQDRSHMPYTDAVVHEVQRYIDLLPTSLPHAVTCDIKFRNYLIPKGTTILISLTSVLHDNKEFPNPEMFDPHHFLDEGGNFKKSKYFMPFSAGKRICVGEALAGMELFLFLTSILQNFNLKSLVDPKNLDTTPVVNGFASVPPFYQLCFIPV
Experimental: (§1) Probe substrates and final assay concentrations with the appropriate internal standard are outlined in Table 6a.
(§2) Assays were performed in 0.1 M phosphate buffer (pH 7.4), containing 0.2 mg/ml human liver microsomes (BD Gentest) and a probe substrate mix consisting of: phenacetin, tolbutamide, S-mephenyloin, dextromethorphan, amodiaquine and midazolam (Table 6a) and a range of test compound concentrations (0 to 30 micromolar) in a total volume of 100 microliters. After a 10 min pre-incubation at 37° C., the reaction was started with addition of NADPH at a final concentration of 1.0 mM. […] The samples are centrifuged for 10 min at 4° C. at 4000 rpm and 60 microliters supernatant is diluted with 180 microliters water. Each sample is injected onto a UPLC/MS system for the simultaneous measurement of the probe substrate metabolites and their associated deuterated internal standards. Percentage inhibition is calculated according to: %-inhibition=(1−Ri/R)*100, whereby Ri and R are the metabolite to internal standard peak area ratios in the presence and absence of inhibitor respectively.
(§3) Percentage inhibition data are plotted against the Log transformed test compound concentration and after curve fitting the IC50-value is determined.

Cytochrome P450 1A2 = target: T1, Cytochrome P450 1A2 (Homo sapiens, UniProt P05177); assay: as above
T1 sequence (P05177 1-516): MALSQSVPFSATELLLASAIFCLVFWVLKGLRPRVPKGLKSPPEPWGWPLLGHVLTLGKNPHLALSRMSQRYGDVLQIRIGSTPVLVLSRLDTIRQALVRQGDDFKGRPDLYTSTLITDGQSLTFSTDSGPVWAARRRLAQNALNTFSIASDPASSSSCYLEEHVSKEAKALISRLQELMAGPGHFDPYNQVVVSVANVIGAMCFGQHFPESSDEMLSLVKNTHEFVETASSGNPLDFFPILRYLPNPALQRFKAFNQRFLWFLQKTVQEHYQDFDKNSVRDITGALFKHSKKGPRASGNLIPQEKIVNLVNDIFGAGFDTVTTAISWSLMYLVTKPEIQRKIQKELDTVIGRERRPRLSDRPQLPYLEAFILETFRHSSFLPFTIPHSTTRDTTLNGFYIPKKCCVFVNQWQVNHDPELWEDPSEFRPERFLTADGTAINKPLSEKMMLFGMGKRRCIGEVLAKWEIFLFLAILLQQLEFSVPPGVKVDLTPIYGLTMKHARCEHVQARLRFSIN
Experimental: as §1, §2, §3

Cytochrome P450 2D6 = Cytochrome P450 2D6 (Homo sapiens, UniProt P10635); assay: as above; conditions: 2D6_Dextro pIC50, human liver microsomes 0.2 mg/ml; probe dextromethorphan 3 microM
Cytochrome P450 2D6, sequence (P10635 whole entry): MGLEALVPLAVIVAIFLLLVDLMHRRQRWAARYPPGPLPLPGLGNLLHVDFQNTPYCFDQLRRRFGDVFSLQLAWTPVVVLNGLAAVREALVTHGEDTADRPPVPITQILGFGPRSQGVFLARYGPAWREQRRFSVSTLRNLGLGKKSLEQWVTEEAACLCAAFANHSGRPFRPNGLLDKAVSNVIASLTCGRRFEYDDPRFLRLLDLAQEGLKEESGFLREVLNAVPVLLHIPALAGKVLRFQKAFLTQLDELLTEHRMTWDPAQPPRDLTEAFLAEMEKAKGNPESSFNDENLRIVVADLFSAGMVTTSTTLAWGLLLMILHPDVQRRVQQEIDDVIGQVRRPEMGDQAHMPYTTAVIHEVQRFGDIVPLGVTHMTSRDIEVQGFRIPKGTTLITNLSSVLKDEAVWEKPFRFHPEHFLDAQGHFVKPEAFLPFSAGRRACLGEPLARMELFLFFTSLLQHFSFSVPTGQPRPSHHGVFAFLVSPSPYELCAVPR
Experimental: as §1, §2, §3

Cytochrome P450 2C19 = Cytochrome P450 2C19 (Homo sapiens, UniProt P33261); assay: as above; conditions: 2C19_S-Meph pIC50, human liver microsomes 0.2 mg/ml; probe S-mephenytoin 30 microM
Cytochrome P450 2C19, sequence (P33261 whole entry): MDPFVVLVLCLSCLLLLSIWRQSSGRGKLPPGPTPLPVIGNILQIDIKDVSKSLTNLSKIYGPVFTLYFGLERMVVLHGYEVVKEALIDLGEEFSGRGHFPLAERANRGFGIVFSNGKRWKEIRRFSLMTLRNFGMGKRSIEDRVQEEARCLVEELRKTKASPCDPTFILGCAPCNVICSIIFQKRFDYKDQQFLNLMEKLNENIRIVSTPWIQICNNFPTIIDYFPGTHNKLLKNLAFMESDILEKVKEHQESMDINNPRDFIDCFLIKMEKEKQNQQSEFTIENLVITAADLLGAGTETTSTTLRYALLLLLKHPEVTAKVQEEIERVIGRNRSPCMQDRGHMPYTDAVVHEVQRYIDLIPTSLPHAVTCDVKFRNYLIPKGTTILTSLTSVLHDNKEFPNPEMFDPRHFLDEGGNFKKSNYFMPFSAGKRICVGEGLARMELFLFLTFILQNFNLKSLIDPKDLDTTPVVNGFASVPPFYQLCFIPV
Experimental: as §1, §2, §3

[1] = test system: Sporothrix schenkii B62482; assay: Antifungal activity in vitro (resazurin susceptibility screen), Inf. A; type: cell-based; conditions: Sporothrix, B62482, Sporothrix schenkii B62482; 27 °C, 4 days, resa time 24 hours; highest in-test concentration 64 μM; read-out: Inf. A pIC50 (converted)
Experimental: (§4) The standard susceptibility screen was performed in 96-well plates (U-bottom, Greiner Bio-One). […] These serial dilutions (10 n1) were then spotted onto test-plates that could be stored in the dark at 4° C. for a maximum period of 2 weeks. […] The different fungal species/isolates (Table 3a) were cryopreserved and 1/1000 diluted in medium just prior to use. A standard inoculum of 200 μl containing 10^3 colony-forming unit (cfu) was then added to each well. A positive control (100% growth=fungal culture without antifungal) and a negative control (0% growth ═RPMI-MOPS medium) were included on each plate. […] [table]

[2] = test system: Trichophyton rubrum B68183; assay: Antifungal activity in vitro (resazurin susceptibility screen), Inf. C; type: cell-based; conditions: Trichophyton rubrum B68183; 27 °C, 7 days, resa time 24 hours; read-out: Inf. C pIC50 (converted)
Experimental: as §4

CYP3A4 = CYP3A4 (Homo sapiens, UniProt P08684); assay: Cytochrome P450 inhibition, Protocol A, cDNA expressed proteins, fluorogenic substrates; type: in vitro ADME
CYP3A4, sequence (P08684 whole entry): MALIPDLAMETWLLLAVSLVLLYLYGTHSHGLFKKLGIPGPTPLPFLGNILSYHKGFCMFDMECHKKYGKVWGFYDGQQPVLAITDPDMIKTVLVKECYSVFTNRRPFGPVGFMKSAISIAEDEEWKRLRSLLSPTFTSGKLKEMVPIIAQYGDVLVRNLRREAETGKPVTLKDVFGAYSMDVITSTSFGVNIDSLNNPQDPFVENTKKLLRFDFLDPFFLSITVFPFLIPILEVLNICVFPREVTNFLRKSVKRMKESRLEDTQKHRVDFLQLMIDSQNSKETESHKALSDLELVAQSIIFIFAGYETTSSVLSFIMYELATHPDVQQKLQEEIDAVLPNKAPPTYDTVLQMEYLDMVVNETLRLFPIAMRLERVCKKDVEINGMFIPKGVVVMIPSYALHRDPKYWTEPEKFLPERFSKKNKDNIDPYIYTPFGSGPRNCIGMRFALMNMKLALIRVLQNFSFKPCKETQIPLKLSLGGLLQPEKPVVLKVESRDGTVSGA
Experimental: (§5) All fluorogenic based assays were performed in Black Costar 96-well plates according to Crespi et al 1997 with minor modifications (Crespi C L, Miller V P & Penman B W (1997). Microtiter plate assays for inhibition of human, drug-metabolizing cytochromes P450. Anal. Biochem. Vol 248, 1898-1900). Assay conditions are outlined in Table 5a. For cytochrome P450 3A4, three different fluorogenic substrates were used. Each reaction mixture consisted of the appropriate concentration of enzyme, NADPH-generating system (“NADPH” means β-nicotinamide adenine dinucleotide phosphate, reduced), substrate in sodium/potassium buffer (pH 7.4). For each cytochrome P450 batch Michealis-Menten kinetics were determined using 11 concentrations.
(§6) Thereafter, further dilutions were made in acetonitrile. […] The compounds were serially diluted to give final concentrations ranging from 1 nM to 10 μM. The reaction mixtures, whereby 1 μL of buffer was replaced by compound solution, were pre-warmed for 5 min at 37° C. and the reaction was initiated by the addition of β-nicotinamide adenine dinucleotide phosphate (NADP+). Reactions were terminated by addition of stopping reagent and the fluorescence was measured using a Fluoroscan (Labsystems, Brussel, Belgium).
(§7) In Table 5a, the following abbreviations were used: 3-cyano-7-ethocycoumarin (CEC), 7-methoxy-4-trifluoromethylcoumarin (MFC), 3-[2-(N,N-diethyl-N-methylamino)ethyl]-7-methoxy-4-methylcoumarin (AMMC), 7-benzyloxy-trifluoromethyl coumarin (BFC), 7-benzyloxyquinoline (BQ) and dibenzyl fluorescein (DBF).

[3] = test system: Aspergillus fumigatus B42928; assay: Antifungal activity in vitro (resazurin susceptibility screen), Inf. E; type: cell-based; conditions: Aspergillus fumigatus B42928; 27 °C, 48 hours, resa time 17 hours; read-out: Inf. E pIC50 (converted)
Experimental: as §4

[4] = Liver metabolic stability assay, hLM; type: in vitro ADME, human
Experimental: (§8) Liver preparations (microsomal fractions) were obtained from BD Gentest (San Jose, Calif., US). Metabolic stability was assessed using the following assay conditions. […] The mixture was pre-incubated at 37° C. for 5 min and the enzymatic reaction was started by addition of 5 μM test compound. After 0 (control) and 15 minutes (min), the reactions were terminated by addition of […] (500 μl). The precipitated material was removed by centrifugation at 1200 g for 10 min. The supernatant was analysed by LC-MS/MS on a ThermoFinnigan LCQ Deca XP ion-trap mass spectrometer equipped with an atmospheric pressure chemical ionisation source. Calculation of %-compound remaining was as described by Kantharaj et al. 2003 ((Kantharaj E., Tuytelaars A, Proost P E A, Ongel Z, van […] (2003). Simultaneous measurement of drug metabolic stability and identification of metabolites using ion-trap mass spectrometry.

[5] = test system: Candida parapsilosis B66126; assay: Antifungal activity in vitro (resazurin susceptibility screen), Inf. D; type: cell-based; conditions: Lodderomyces parapsilosis; Candida parapsilosis B66126; 37 °C, 24 hours, resa time 4 hours; read-out: Inf. D pIC50 (converted)
Experimental: (§9) The standard susceptibility screen was performed in 96-well plates (U-bottom, Greiner Bio-One). […] These serial dilutions (10 n1) were then spotted onto test-plates that could be stored in the dark at 4° C. for a maximum period of 2 weeks. […] A standard inoculum of 200 μl containing 10^3 colony-forming unit (cfu) was then added to each well. A positive control (100% growth=fungal culture without antifungal) and a negative control (0% growth ═RPMI-MOPS medium) were included on each plate.

[6] = test system: Trichophyton mentagrophytes B70554; assay: Antifungal activity in vitro (resazurin susceptibility screen), Inf. G; type: cell-based; conditions: Trichophyton mentagrophytes, B70554, Trichophyton mentagrophytes B70554; 27 °C, 7 days, resa time 24 hours; read-out: Inf. G pIC50 (converted)
Experimental: as §9

[7] = test system: Cryptococcus neoformans B66663; assay: Antifungal activity in vitro (resazurin susceptibility screen), Inf. F; type: cell-based; conditions: Cryptococcus neoformans, B66663, Cryptococcus neoformans B66663; 37 °C, 24 hours, resa time 4 hours; read-out: Inf. F pIC50 (converted)
Experimental: as §4

Microsporum canis B68128 = assay: Antifungal activity in vitro (resazurin susceptibility screen), Inf. B; type: cell-based; conditions: Microsporum canis, B68128, Microsporum canis B68128; 27 °C, 9 days, resa time 24 hours; read-out: Inf. B pIC50 (converted)
Experimental: as §9

CYP1A2 = target: T2, CYP1A2 (Homo sapiens, UniProt P05177); assay: Cytochrome P450 inhibition, Protocol A, cDNA expressed proteins, fluorogenic substrate; type: in vitro ADME
T2 sequence (P05177 1-516): T1 sequence (P05177 1-516)
Experimental: as §5, §6, §7

CYP2D6 = CYP2D6 (Homo sapiens, UniProt P10635); assay: as above; type: in vitro ADME
CYP2D6, sequence (P10635 whole entry): as the sequence (P10635 whole entry) above
Experimental: as §5, §6, §7

CYP2C9 = CYP2C9 (Homo sapiens, UniProt P11712); assay: as above; type: in vitro ADME
CYP2C9, sequence (P11712 whole entry): as the sequence (P11712 whole entry) above
Experimental: as §5, §6, §7

[8] = Liver metabolic stability assay, gpLM; type: in vitro ADME, guinea pig
Experimental: as §8

| Structure (SMILES) | IC50 [1] | IC50 [2] | IC50 [3] | IC50 [5] | IC50 [6] | IC50 [7] | IC50 (Microsporum canis B68128) | melting point | also measured |
| --- | --- | --- | --- | --- | --- | --- | --- | --- | --- |
| CCc1cccc(C2NCc3c(Cl)cccc3-n3cccc32)c1 (stereo not shown) |  |  |  |  |  |  |  |  | IC50 (Cytochrome P450 2C9): 6.31 µM; IC50 (Cytochrome P450 1A2): > 10 µM; IC50 (Cytochrome P450 2D6): 2 µM; IC50 (Cytochrome P450 2C19): 1.26 µM |
| CC(=O)c1cc(C2NCc3c(Cl)cc(Cl)cc3-n3cccc32)ccc1F (stereo not shown) [Compound 13, 1-[5-(7,9-dichloro-5,6-dihydro-4H-pyrrolo[1,2-a][1,4]benzodiazepin-4-yl)-2-fluorophenyl]-ethanone] | > 63.1 µM | 2 µM | > 63.1 µM | > 63.1 µM | > 63.1 µM | > 63.1 µM | 7.94 µM |  | hCYP3A4_BFC_Pct_Inh (CYP3A4; human, 10 μM, pH 7.4): 81%; hCYP3A4_BQ_Pct_Inh (CYP3A4; human, 10 μM, pH 7.4): 78%; hCYP3A4_DBF_Pct_Inh (CYP3A4; human, 10 μM, pH 7.4): 91%; %-compound metabolised_Met_hLM ([4]; human, microsomes, 0.25 h, 5 μM, pH 7.4): 69%; hCYP1A2_CEC_Pct_Inh (CYP1A2; human, 10 μM, pH 7.4): 64%; hCYP2D6_AMMC_Pct_Inh (CYP2D6; human, 10 μM, pH 7.4): 51%; hCYP2C9_MFC_Pct_Inh (CYP2C9; human, 10 μM, pH 7.4): 61%; %-compound metabolised Met_gpLM ([8]; guinea pig, microsomes, 0.25 h, 5 μM, pH 7.4): 95% |
| CC(=O)c1ccc(C2NCc3cc(Cl)cc(Cl)c3-n3cccc32)cc1.Cl (stereo not shown) [Compound 14, 1-[4-(8,10-dichloro-5,6-dihydro-4H-pyrrolo[1,2-a][1,4]benzodiazepin-4-yl)phenyl]-ethanone .HCl] | 25.1 µM | 0.631 µM | > 63.1 µM | > 63.1 µM | 25.1 µM | 50.1 µM | 2.51 µM | 259.3 to 264.5 °C |  |
| CC(=O)c1cc(C2=NCc3c(Cl)cc(Cl)cc3-n3cccc32)ccc1F [Compound 23, 1-[5-(7,9-dichloro-6H-pyrrolo[1,2-a][1,4]benzodiazepin-4-yl)-2-fluorophenyl]-ethanone] | > 63.1 µM | > 63.1 µM | > 63.1 µM | > 63.1 µM | > 63.1 µM | > 63.1 µM | > 63.1 µM | 192.3 to 193.4 °C | hCYP3A4_BFC_Pct_Inh (CYP3A4; % inhibition at 10 μM, substrate BFC, cDNA expressed protein): 51%; hCYP3A4_BQ_Pct_Inh (CYP3A4; % inhibition at 10 μM, substrate BQ, cDNA expressed protein): 56%; hCYP3A4_DBF_Pct_Inh (CYP3A4; % inhibition at 10 μM, substrate DBF, cDNA expressed protein): 40%; %-compound metabolised_Met_hLM ([4]; human liver microsomes, 1 mg protein/ml, 5 μM test compound, 15 min, 37 °C): 22%; hCYP1A2_CEC_Pct_Inh (CYP1A2; % inhibition at 10 μM, substrate CEC, cDNA expressed protein): 17%; hCYP2D6_AMMC_Pct_Inh (CYP2D6; % inhibition at 10 μM, substrate AMMC, cDNA expressed protein): 3%; hCYP2C9_MFC_Pct_Inh (CYP2C9; % inhibition at 10 μM, substrate MFC, cDNA expressed protein): 51%; %-compound metabolised Met_gpLM ([8]; guinea pig microsomes, 1 mg protein/ml, 5 μM test compound, 15 min, 37 °C): 39% |
